Where “and” joins values, the source holds several entries; their conditions need not be identical. Equal values may be shown once. Numbers after ± are expanded uncertainties.
Conditions: Crystal

[Cl][Fe]([Cl])[Cl] [ferric chloride]
vapor or sublimation pressure (383.9 K): 2.16e-05 ± 4.4e-06 kPa | vapor or sublimation pressure (386.3 K): 1.586e-05 ± 3.3e-06 kPa and 2.159e-05 ± 4.4e-06 kPa | vapor or sublimation pressure (389.3 K): 4.466e-05 ± 1e-05 kPa | vapor or sublimation pressure (389.6 K): 3.81e-05 ± 7.8e-06 kPa | vapor or sublimation pressure (389.7 K): 3.88e-05 ± 8e-06 kPa | vapor or sublimation pressure (390.4 K): 3.533e-05 ± 7.1e-06 kPa | vapor or sublimation pressure (392 K): 3.693e-05 ± 7.7e-06 kPa | vapor or sublimation pressure (392.7 K): 6.293e-05 ± 1.4e-05 kPa | vapor or sublimation pressure (393.8 K): 8.506e-05 ± 1.7e-05 kPa | vapor or sublimation pressure (394.2 K): 6.506e-05 ± 1.3e-05 kPa | vapor or sublimation pressure (394.8 K): 9.106e-05 ± 1.8e-05 kPa | vapor or sublimation pressure (394.9 K): 4.68e-05 ± 9.4e-06 kPa and 7.493e-05 ± 1.5e-05 kPa | vapor or sublimation pressure (395.1 K): 5.706e-05 ± 1.3e-05 kPa | vapor or sublimation pressure (395.4 K): 7.039e-05 ± 1.7e-05 kPa | vapor or sublimation pressure (396.6 K): 7.053e-05 ± 1.4e-05 kPa | vapor or sublimation pressure (398 K): 6.426e-05 ± 1.3e-05 kPa | vapor or sublimation pressure (398.6 K): 0.0001123 ± 2.8e-05 kPa | vapor or sublimation pressure (398.9 K): 0.0001423 ± 3.5e-05 kPa | vapor or sublimation pressure (399 K): 0.0001348 ± 2.9e-05 kPa and 0.0001191 ± 2.4e-05 kPa | vapor or sublimation pressure (401.2 K): 0.0001035 ± 2.1e-05 kPa | vapor or sublimation pressure (403 K): 0.0001712 ± 3.5e-05 kPa and 0.0001621 ± 3.5e-05 kPa and 0.0001703 ± 3.5e-05 kPa | vapor or sublimation pressure (403.2 K): 0.0002573 ± 5.2e-05 kPa | vapor or sublimation pressure (403.3 K): 0.0001812 ± 3.8e-05 kPa | vapor or sublimation pressure (404.5 K): 0.0002585 ± 5.2e-05 kPa | vapor or sublimation pressure (404.6 K): 0.000249 ± 5e-05 kPa | vapor or sublimation pressure (407.7 K): 0.0003298 ± 7e-05 kPa | vapor or sublimation pressure (408.6 K): 0.000386 ± 7.7e-05 kPa and 0.0003425 ± 6.8e-05 kPa | vapor or sublimation pressure (409.1 K): 0.000328 ± 6.9e-05 kPa | vapor or sublimation pressure (409.3 K): 0.0003058 ± 6.3e-05 kPa | vapor or sublimation pressure (409.8 K): 0.0004945 ± 0.00012 kPa | vapor or sublimation pressure (409.9 K): 0.0003822 ± 8.1e-05 kPa | vapor or sublimation pressure (412.7 K): 0.0003274 ± 6.6e-05 kPa | vapor or sublimation pressure (413.5 K): 0.0004797 ± 0.00011 kPa | vapor or sublimation pressure (413.9 K): 0.0005921 ± 0.00013 kPa and 0.0007087 ± 0.00015 kPa | vapor or sublimation pressure (414.1 K): 0.0005326 ± 0.00011 kPa | vapor or sublimation pressure (414.6 K): 0.0007097 ± 0.00014 kPa | vapor or sublimation pressure (416.4 K): 0.0004961 ± 0.0001 kPa and 0.0004838 ± 9.9e-05 kPa | vapor or sublimation pressure (418.4 K): 0.001063 ± 0.00043 kPa | vapor or sublimation pressure (419.3 K): 0.0007021 ± 0.00015 kPa and 0.001331 ± 0.00057 kPa | vapor or sublimation pressure (419.4 K): 0.0008229 ± 0.00017 kPa | vapor or sublimation pressure (419.8 K): 0.0006339 ± 0.00016 kPa | vapor or sublimation pressure (419.9 K): 0.0009366 ± 0.00019 kPa | vapor or sublimation pressure (421.9 K): 0.0009899 ± 0.0002 kPa | vapor or sublimation pressure (422.2 K): 0.001008 ± 0.0004 kPa | vapor or sublimation pressure (423.6 K): 0.001647 ± 0.00073 kPa | vapor or sublimation pressure (424 K): 0.00111 ± 0.00045 kPa | vapor or sublimation pressure (424.2 K): 0.001053 ± 0.00043 kPa | vapor or sublimation pressure (424.8 K): 0.001549 ± 0.00068 kPa | vapor or sublimation pressure (424.9 K): 0.001033 ± 0.00042 kPa | vapor or sublimation pressure (425.6 K): 0.001455 ± 0.00063 kPa | vapor or sublimation pressure (426.4 K): 0.001488 ± 0.00065 kPa | vapor or sublimation pressure (426.8 K): 0.001202 ± 0.00052 kPa | vapor or sublimation pressure (428.8 K): 0.001767 ± 0.00091 kPa and 0.001985 ± 0.00097 kPa | vapor or sublimation pressure (429.2 K): 0.002648 ± 0.0014 kPa | vapor or sublimation pressure (430.9 K): 0.002751 ± 0.0013 kPa | vapor or sublimation pressure (431.6 K): 0.001895 ± 0.00087 kPa | vapor or sublimation pressure (434 K): 0.003812 ± 0.002 kPa | vapor or sublimation pressure (434.4 K): 0.003132 ± 0.0016 kPa | vapor or sublimation pressure (434.5 K): 0.004177 ± 0.0022 kPa | vapor or sublimation pressure (439.7 K): 0.006419 ± 0.0036 kPa | vapor or sublimation pressure (445.2 K): 0.008538 ± 0.005 kPa

Source: the NIST ThermoML archive (doi:10.1016/j.jct.2005.12.012)
